Where “and” joins values, the source holds several entries; their conditions need not be identical. Equal entries are not always repeated.
Key:
free fatty acids (FFS) [1] = assay: influence on the free fatty acids (FFS) in starved (hyperlipacidaemic) animals, hunger lipolysis; type: in vivo, rats (Wistar); details: starved
Procedure: Investigations on a total of 260 Wistarrats were conducted with 7-[3-(N-methyl-N-2-hydroxyethyl)-amino-2-hydroxypropyl]-1,3-dimethylxanthine-3-methylpyrazole-5-carboxylate.
Examination of the influence of 7-[3-(N-methyl-N-2-hydroxy-
ethyl)-amino-2-hydroxypropyl]-1,3-dimethylxanthine-3-methyl-
pyrazole-5-carboxylate on the serum fatty acids (FFS) of
Male Rats, starve for 17 hours
Dose: 100 mg/kg body weight, oral by esophagus probe,
Blood removal: 1 hour after application
pyrazole-5-carboxylate on the free fatty acids (FFS) in
starved animals 1 hour after application
Comparative examinations of the influence of 7-[3-(N-methyl-
carboxylic acid on the free fatty acids (FFS) in starved
animals 1 hour after application
pyrazole-5-carboxylic acid on the free fatty acids (FFS)
in starved animals 6 hours after application

[2] = free acid, known per se; cited from earlier work
[3] = system: free fatty acids and triglycerides in the serum; details: cited from earlier work
serum triglycerides (TG) = assay: influence on the serum triglycerides (TG) in normal animals; type: in vivo, Rats (Wistar); details: for TG: starve for 5 hours; for TG, mean (x): 1 hour
Procedure: Rats, starve for 5 hours
40 mg/kg body weight of active principle according to
the invention, oral by esophagus probe 1 hour before
12 mg/kg body weight of 3-methylpyrazole-5-carboxylic
acid, equim. dosage, 1 hour before removal of blood
Dose: 10 mg/kg body weight of active principle according to the
invention, oral by esophagus probe 1 hour before blood removal
Dose: 3 mg/kg body weight of 3-methylpyrazole-5-carboxylic acid,
equim. dosage, oral by esophagus probe 1 hour before

[4] = starving rats; David L. Smith et al; cited from earlier work
free fatty acids (FFS) [5] = assay: influence on the free fatty acids (FFS) after repeated application once daily for 4 days; type: in vivo, Rats male (Wistar); details: for free fatty acids (FFS): individual animals, 15 mg/kg
Procedure: Rats male, repeated application once daily for 4 days,
on the 4th day groups of 10 animals were killed at
intervals of 30 minutes, 1 hour and 2 hours after the
last application by ether narcosis and heart puncture.
10 controls were given esophagus probe, animals starved
for 17 hours before killing (cf. FIG. 4)
7-[3-(N-methyl-2-hydroxyethyl)-amino-2-
hydroxypropyl]-1,3-dimethylxanthine-3-
methylpyrazole-5-carboxylate 50 mg/kg peroral
3-methylpyrazole-5-carboxylic acid (3-MPC)
eq./kg 15 mg/kg peroral

Cc1cc(C(=O)O)[nH]n1 [3-methylpyrazole-5-carboxylic acid, reference compound]
FFS (free fatty acids (FFS) [1]; Table 5, individual animals, 1 hour after application, 15 mg/kg): 0.41 μval/ml and 0.43 μval/ml and 0.59 μval/ml and 0.52 μval/ml and 0.67 μval/ml and 0.37 μval/ml and 0.40 μval/ml and 0.54 μval/ml and 0.44 μval/ml
FFS, mean (free fatty acids (FFS) [1]; Table 5, mean, n=10, 1 hour after application, 15 mg/kg, control 1.08, p<0.001): 0.47 μval/ml
FFS (free fatty acids (FFS) [1]; Table 6, individual animals, 6 hours after application, 15 mg/kg p.o., 15 mg/kg): 0.51 μval/ml and 0.50 μval/ml and 0.67 μval/ml and 0.64 μval/ml and 0.56 μval/ml and 0.53 μval/ml and 0.61 μval/ml and 0.85 μval/ml and 0.44 μval/ml and 0.54 μval/ml and 0.58 μval/ml and 1.00 μval/ml and 0.47 μval/ml and 1.46 μval/ml and 1.10 μval/ml
FFS, mean (x) (free fatty acids (FFS) [1]; Table 6, mean, n=21, 6 hours after application, 15 mg/kg p.o., control 0.86, p<0.01): 0.69 μval/ml
lipid-lowering activity [2]: shows corresponding activity
tachyphylaxia ([3]; observed by the authors, limits its suitability for therapeutic application): tachyphylaxia
effect of pretreatment on the free fatty acid content of the plasma ([3]; pretreatment 4 to 5 days, Gerritzen et al): weakens the effect on the free fatty acid content of the plasma
level of free fatty acids and triglycerides in the serum ([3]; small doses, starving normal rats): reduces the level of free fatty acids and triglycerides in the serum
TG (serum triglycerides (TG); Table 7, individual animals, 12 mg/kg (equim. dosage) 1 hour before removal of blood, 12 mg/kg): 90.2 mg % and 87.3 mg % and 58.7 mg % and 107.4 mg % and 51.6 mg % and 55.8 mg % and 71.6 mg % and 60.1 mg % and 68.7 mg %
TG, mean (x) (serum triglycerides (TG); Table 7, mean, 12 mg/kg (equim. dosage), control x = 66.4): 74.1 mg %
TG (serum triglycerides (TG); Table 8, individual animals, 3 mg/kg (equim. dosage) oral 1 hour before blood removal, 3 mg/kg): 137.4 mg % and 87.3 mg % and 70.2 mg % and 74.4 mg % and 50.1 mg % and 43.0 mg % and 57.2 mg % and 51.5 mg % and 32.9 mg % and 73.0 mg %
TG, mean (x) (serum triglycerides (TG); Table 8, mean, 3 mg/kg (equim. dosage) oral, control x = 86.3, p>0.05→Ko., p>0.05→xant.-carbox.): 67.7 mg %
effect on serum triglyceride level of normal animals (serum triglycerides (TG); equimolecular doses of the free acid, result in words): relatively weak, i.e. insignificant effect
hypoglycaemic activity relative to tolbutamide [4]: two hundred times
free fatty acids (FFS) (free fatty acids (FFS) [5]; 15 mg/kg p.o. 4 × appl., 30' after last application): 0.66 μval/ml plasma and 0.59 μval/ml plasma and 0.53 μval/ml plasma and 0.91 μval/ml plasma and 0.56 μval/ml plasma and 0.95 μval/ml plasma and 1.02 μval/ml plasma and 0.81 μval/ml plasma and 0.80 μval/ml plasma and 0.60 μval/ml plasma
free fatty acids (FFS) (free fatty acids (FFS) [5]; 15 mg/kg p.o. 4 × appl., 1 h after last application): 0.75 μval/ml plasma and 0.73 μval/ml plasma and 0.95 μval/ml plasma and 0.96 μval/ml plasma and 1.03 μval/ml plasma and 1.16 μval/ml plasma and 1.08 μval/ml plasma and 0.84 μval/ml plasma and 1.24 μval/ml plasma and 0.92 μval/ml plasma
free fatty acids (FFS) (free fatty acids (FFS) [5]; 15 mg/kg p.o. 4 × appl., 2 h after last application): 0.62 μval/ml plasma and 0.59 μval/ml plasma and 0.51 μval/ml plasma and 0.70 μval/ml plasma and 0.88 μval/ml plasma and 0.84 μval/ml plasma and 1.27 μval/ml plasma and 1.20 μval/ml plasma and 0.86 μval/ml plasma
free fatty acids (FFS), mean (x9) (free fatty acids (FFS) [5]; mean of 9, 15 mg/kg p.o. 4 × appl., 2 h after last application, control 1.27, p<0.001): 0.83 μval/ml plasma
free fatty acids (FFS), mean (x10) (free fatty acids (FFS) [5]; 15 mg/kg p.o. 4 × appl., 30' after last application, control 1.27, p<0.001): 0.74 μval/ml plasma
free fatty acids (FFS), mean (x10) (free fatty acids (FFS) [5]; 15 mg/kg p.o. 4 × appl., 1 h after last application, control 1.27, p<0.001): 0.97 μval/ml plasma
weakening of effect on free fatty acid content by pretreatment (free fatty acids (FFS) [5]; repeated application, result in words): able to confirm the results of these tests

— US3980646A, “3-Methylpyrazole-5-carboxylates and medicaments containing these compounds” (Wulfing; Johann A., priority 1974, dated 1976)
